Source: patent publication US10857112B2, “Small molecule inhibitors of RNA binding motif (RBM) proteins for the treatment of acute cellular injury” (University of Pittsburgh—Of the Commonwealth System of …, priority 2012, dated 2020)

Tests used:
[1] = tested on: Human derived myocardial heart cells; assay: STS injury in human heart cells, viability (CellTiter Blue); assay type: cell-based; conditions: 24 hour co-treatment; 500 nM or 1 μM STS, 125 μM AQ2S
Method: Human derived myocardial heart cells were seeded onto 96-well plates. 24 hours later cells were injured with STS.
Optimal cell death conditions were established in heart cells. Heart cells were treated with STS at increasing doses for 24 hours (FIG. 28A). […] Heart cells were treated with 500 nM STS+/−125 μM AQ2S or 1 μM STS+/−125 μM AQ2S for 24 hours. Cell viability was measured 24 hours later and expressed as relative fluorescent units (RFU). […] Data were analyzed by ANOVA (p<0.0001); Fisher LSD post-hoc test. * indicates p<0.05. Graphs show Mean+SEM.

[2] = tested on: primary rat cortical neurons; assay: H2O2 injury, neuronal viability 24 h (CellTiter-Blue); conditions: 40 μM H2O2
[3] = tested on: primary rat cortical neurons; assay: AQ2S alone on fluorescent and luminescent viability assays (luciferase interference); assay type: cell-based
Method: To test if AQ2S mediated inhibition of caspase3/7 was artifact, the effect of different AQ2S concentrations on 2 different cell viability tests were compared (one test fluorometric and the other luminescent). AQ2S was incubated at the indicated concentrations for 24 hours. After 24 hours, the cell viability reagent was added and cell survival assayed. […] Finally, to replicate the exact experimental conditions used in injury studies, neurons were first incubated with the CellTiter Blue reagent for 2 hours. Subsequently, the viability-GLO reagent was added for 1 hour and luminescence measured (i.e. viability reagents were mixed together; FIG. 11C).

[4] = tested on: caspase3/7; assay: Stretch injury induced caspase3/7 activity; assay type: cell-based, rat; conditions: 75 μM pre-treated 30 minutes; 24 hours after injury
Method: Rat cortical neurons are isolated from E16 embryos, and plated on silicone membranes (with defined elastic properties) held in a custom made stainless steel chamber. DIV 7-9 neurons are subjected to a (computer controlled) preset stretch injury; strain rate 10 s^−1 and 50% membrane deformation. AQ2S or DMSO (vehicle control) was added before (pre-treatment) or after post-treatment) injury, Cell death was assayed ˜24 hours after injury by measuring 1) extracellular LDH in the culture media (released from dying/dead cells), 2) caspase-3/7 activation (a protease involved in execution of cell death), and 3) MTT metabolism (a reagent metabolized by living cells).
Caspase activation plays a role in cell death after TBI. Primary rat cortical neurons were grown on a custom made stretch-injury device (An in vitro model of TBI). Neurons were pre-treated with 75 μM AQ2S or vehicle only (DMSO control) for 30 minutes, and subjected to a defined stretch injury. 24 hours after injury caspase3/7 activity was measured. […] (C) In a third experiment, AQ2S was administered 30 minutes before (pre-treatment) or 30 minutes after (post-treatment) stretch-TBI (FIG. 19C) (Experiment 3, n=3/treatment). Data was analyzed using ANOVA and Fisher LSD post-hoc test. Data is significant at (*) p<0.05. Graphs show Mean+SEM.

[5] = target: T1, RBM5 (Homo sapiens, UniProt P52756); conditions: cited from earlier work
T1 sequence (P52756 181-210 limits assumed): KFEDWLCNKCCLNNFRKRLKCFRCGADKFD

[6] = tested on: caspase-9; assay: STS-induced caspase-9 activity in neurons; assay type: cell-based, rat; conditions: 150 nM STS 24 hours; co-treatment 75 μM
[7] = target: T2, recombinant active caspase-3 (Homo sapiens, UniProt P42574); assay: In vitro cell-free caspase-3 drug screening assay (DEVD-AFC); assay type: biochemical
T2 construct: The reaction mixture was combined with recombinant active caspase-3 and a DEVD-AFC probe; purchased PromoKine (Heidelberg, Germany)
T2 sequence (P42574 29-175 limits assumed): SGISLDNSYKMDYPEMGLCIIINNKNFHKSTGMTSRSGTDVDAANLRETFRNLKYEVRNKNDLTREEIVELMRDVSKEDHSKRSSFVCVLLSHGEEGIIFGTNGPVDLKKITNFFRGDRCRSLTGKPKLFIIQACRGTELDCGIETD
T2 sequence (P42574 176-277 limits assumed): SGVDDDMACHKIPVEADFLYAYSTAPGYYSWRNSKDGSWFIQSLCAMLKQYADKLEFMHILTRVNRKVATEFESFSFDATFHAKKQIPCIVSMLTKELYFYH
Method: An in vitro caspase drug screening kit was purchased from PromoKine (Heidelberg, Germany), and used according to the manufacturer's instructions. Briefly, all drugs were dissolved in DMSO and diluted in double-distilled water to desired concentration. The reaction mixture was combined with recombinant active caspase-3 and a DEVD-AFC probe. Active caspase-3 cleaves the DEVD-recognition sequence and releases fluorescent AFC. The amount of AFC detected is a measure of caspase-3 activity. Reactions were prepared in black-walled 96-well plates, incubated at 37° C., and AFC release measured with an AFC filter (Ex: 405 nm, Em: 495-505 nM) on a GLOMax-Multi Microplate Reader (Promega).

[8] = tested on: mice; conditions: intraperitoneal; cited from earlier work
[9] = tested on: caspase-8; assay: STS-induced caspase-8 activity in neurons; assay type: cell-based, rat; conditions: 150 nM STS 24 hours; co-treatment 75 μM
[10] = tested on: mice; conditions: IP 100, 200 or 400 mg/kg; cited from earlier work
[11] = tested on: extracellular regulated kinase (ERK); assay: Western blot of ERK activation; assay type: cell-based, rat; conditions: 125 μM; 17 hours STS
Method: To determine the specificity of AQ2S mediated signaling changes, extracellular regulated kinase (ERK) was also examined. 17 hours STS abolished ERK activation.
Neurons used for Western blot analysis for grown in 6-well plates. Briefly, neurons were treated with experimental compounds for the indicated time/conditions. At the end of each experiment, neurons were washed in ice cold PBS and harvested in 65 μL RIPA buffer containing protease inhibitors, phosphatase inhibitors, and EDTA. Extracts were collected in 0.5 mL tubes and sonicated for 20-30 seconds. Cell extracts were then spun at 4° C./16,000 g/10 minutes and stored at −80° C. until use. Frozen extracts were thawed on ice and protein concentration measured using the BCA assay (PIERCE). […] of sample protein was loaded per well of a 7.5% SDS precast gel (Biorad), and run for 30 minutes to 1 hour at 200 V. Kaleidoscope protein standards (Biorad) were run parallel to neuron extracts. Proteins were then transferred to PDVF membranes (run at 100 V/4° C./1.5 hours). PDVF membranes were washed once in tris buffered saline (TBS) and blocked for 1 hour in tris buffered saline/tween-20 with 7.5% nonfat milk (TBS-T/milk). Blots were incubated overnight at 4° C. with primary antibodies in TBS-T/milk. Cell Signaling Technology: phospho-AKT473, AKT Total, phospho-ERK1/2, ERK Total, cleavage caspase-3. […]

## O=C1c2ccccc2C(=O)c2cc(S(=O)(=O)O)ccc21 [AQ2S, anthraquinone-2-sulfonic acid]
[1]
  heart cell viability after STS: increased viability
[2]; post-treatment 50 μM, 24 h
  neuronal death after H2O2 injury: significantly reduced H2O2 induced cell death
[2]; post-treatment 75 μM, 24 h after injury
  neuronal death after H2O2 injury: potently prevented cell death
[3]; CellTiter Blue and viability-GLO reagents combined
  decrease in luminescent signal compared to DMSO controls: 13-17%
[3]; compound alone 24 hours, all concentrations used
  viability, fluorometric CellTiter Blue assay: none of the AQ2S concentrations used inhibited viability below control levels
[4]
  stretch injury induced caspase3/7 activity: significantly reduced caspase activation
[5]; Farina et al. 2011
  targeting of zinc-finger domain in RBM5: selective and potent target of the zinc-finger domain in pro-apoptotic RBM5 and inhibits its function
[5]; read-out: IC50 of AQ2S to inhibit RBM5
  IC50: ~82 µM
[6]
  caspase-9 activity: significantly reduced baseline and injury activity levels
[7]
  activity of recombinant caspase-3: significantly reduced the activity of recombinant caspase-3
[8]
  Acute LD50: 630 mg/kg
[9]
  caspase-8 activity: significantly reduced baseline and injury activity levels
[10]
  survival: all animals survived to toxicology day 5
  tumor formation: did not inhibit tumor formation
[11]
  ERK activation: did not prevent STS-mediated ERK inhibition
